Test results as given in patent publication US7879887B2, “α-amino acid derivatives and medicaments containing the same as an active ingredient” (Nissan Chemical Industries, Ltd., priority 2006, dated 2011).

Assays:
[1] = tested on: colon carcinoma cell line SW620; assay: Cell proliferation inhibitory activity, SW620; type: cell-based, human; conditions: cells counted 4 days later with Cell Counting Kit-8
Method: (§1) Evaluations were carried out using colon carcinoma cell line SW620 (Cat. No. CCL-227), lung carcinoma cell line NCI-H460 (Cat. No. HTB-177), prostate cancer cell line DU 145 (Cat. No. HTB-81), breast cancer cell line MDA-MB-231 (Cat. No. HTB26) and leukemia cell line KG-1a (Cat. No. CCL-246.1) purchased from ATCC, pancreatic cancer cell line MIAPaCa-2 (Cat. No. CRL-1420) purchased from Dainippon Pharmaceutical, and ovarian cancer cell line IGROV1 received from the Netherland Cancer Institute. The cells were cultured under the conditions recommended by the supplier for each cell line, or with respect to IGROV1, according to the method described in Cancer Res. 59: 4559-4563, 1999. Cells suspended in media were added to solutions containing the test substances at various concentrations followed by culturing in a 5% CO2 incubator at 37° C. The numbers of cells were counted 4 days later with the Cell Counting Kit-8. IC50 values were calculated by assigning measured values in the case of not containing a test substance to an inhibition of 0%, and assigning measured values in the case of not containing a test substance or cells to an inhibition of 100%.

[2] = tested on: prostate cancer cell line DU 145; assay: Cell proliferation inhibitory activity, DU 145; type: cell-based, human; conditions: cells counted 4 days later with Cell Counting Kit-8
Method: as §1

CDK3/Cyclin E complex = biological target: T1, CDK3/Cyclin E complex (Homo sapiens, UniProt Q00526); assay: In vitro kinase assay, CDK3/Cyclin E complex; type: biochemical; conditions: recombinant protein (Upstate); read-out: CDK3/cyclinE IC50
T1 construct: purchased Upstate Inc. 14-487
Method: (§2) Inhibitory activity against Aurora A, CDK1/Cyclin B complex, CDK2/Cyclin E complex and CDK3/Cyclin E complex were measured by in vitro kinase assay using recombinant proteins.

Aurora A = biological target: T2, Aurora A (Homo sapiens, UniProt O14965); assay: In vitro kinase assay, Aurora A; type: biochemical; conditions: recombinant protein (Upstate)
T2 construct: purchased Upstate Inc. 14-511
T2 sequence (O14965 1-403): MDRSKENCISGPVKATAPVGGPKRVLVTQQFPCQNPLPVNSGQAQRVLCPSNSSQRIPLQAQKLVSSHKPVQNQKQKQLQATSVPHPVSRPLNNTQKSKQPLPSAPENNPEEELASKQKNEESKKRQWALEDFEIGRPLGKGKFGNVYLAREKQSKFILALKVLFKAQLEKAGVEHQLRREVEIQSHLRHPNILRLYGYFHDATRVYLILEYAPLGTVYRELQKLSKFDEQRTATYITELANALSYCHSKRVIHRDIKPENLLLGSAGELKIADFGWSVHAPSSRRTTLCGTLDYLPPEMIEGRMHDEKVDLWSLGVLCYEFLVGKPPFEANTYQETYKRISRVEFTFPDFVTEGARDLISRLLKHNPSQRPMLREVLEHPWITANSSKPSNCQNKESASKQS
Method: Inhibitory activity against Aurora A, CDK1/Cyclin B complex, CDK2/Cyclin E complex and CDK3/Cyclin E complex were measured by in vitro kinase assay using recombinant proteins. The assays were carried out by using recombinant proteins (Upstate Inc.) for Aurora A, CDK1/Cyclin B complex, CDK2/Cyclin E complex and CDK3/Cyclin E complex (respective cat. nos. 14-511, 14-450, 14-448 and 14-487), in accordance with the procedure described in the product instructions thereof. The 50% inhibitory concentrations (IC50 values) were calculated by assigning measured values in the case of not containing a test compound to an inhibition of 0%, and assigning measured values in the case of not containing a test compound and enzyme to an inhibition of 100%.

CDK2/Cyclin E complex = CDK2/Cyclin E complex (Homo sapiens, UniProt P24941); assay: In vitro kinase assay, CDK2/Cyclin E complex; type: biochemical; conditions: recombinant protein (Upstate); read-out: CDK2/cyclinE IC50
Method: as §2

leukemia cell line KG-1a = assay: Cell proliferation inhibitory activity, KG-1a; type: cell-based; conditions: cells counted 4 days later with Cell Counting Kit-8
Method: as §1

T1 sequence (Q00526 whole entry): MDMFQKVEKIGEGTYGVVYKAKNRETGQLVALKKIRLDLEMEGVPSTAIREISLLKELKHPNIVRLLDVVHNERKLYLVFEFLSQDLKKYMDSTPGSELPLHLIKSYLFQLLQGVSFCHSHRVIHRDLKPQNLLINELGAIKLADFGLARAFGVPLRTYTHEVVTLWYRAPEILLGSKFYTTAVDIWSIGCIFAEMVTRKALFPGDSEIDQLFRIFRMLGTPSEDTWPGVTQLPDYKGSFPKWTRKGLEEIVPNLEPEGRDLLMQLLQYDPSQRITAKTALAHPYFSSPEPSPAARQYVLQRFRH
T1 sequence (P24864 whole entry partner): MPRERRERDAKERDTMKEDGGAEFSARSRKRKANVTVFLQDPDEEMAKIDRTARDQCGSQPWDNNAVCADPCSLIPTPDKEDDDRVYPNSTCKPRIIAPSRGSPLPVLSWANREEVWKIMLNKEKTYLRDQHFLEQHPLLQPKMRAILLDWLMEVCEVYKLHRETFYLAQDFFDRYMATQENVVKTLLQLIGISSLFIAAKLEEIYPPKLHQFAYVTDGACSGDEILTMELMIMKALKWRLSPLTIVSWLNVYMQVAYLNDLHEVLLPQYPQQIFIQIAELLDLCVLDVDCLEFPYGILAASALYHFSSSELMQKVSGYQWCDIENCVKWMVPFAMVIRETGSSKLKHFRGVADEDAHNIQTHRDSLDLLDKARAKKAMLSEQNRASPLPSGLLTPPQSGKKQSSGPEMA

SMILES | IC50 (CDK3/Cyclin E complex) [nM] | IC50 ([1]; Homo sapiens, SW-620, 96 h) [nM] | IC50 (CDK2/Cyclin E complex) [nM] | further results
CC(C)(Nc1ccc(Cl)cc1)C(=O)Nc1nc2c(C(F)(F)F)cc3[nH]ncc3c2s1 [compound 59] |  |  |  | IC50 [1]: 2200 nM; IC50 [2]: 4200 nM
CC(C)(Nc1cccc(C(=O)O)c1)C(=O)Nc1nc2c(C(F)(F)F)cc3[nH]ncc3c2s1 [compound 66] | 333 |  |  | IC50 (Aurora A): 294 nM
CC(C)(Nc1cccc(F)c1)C(=O)Nc1nc2c(C(F)(F)F)cc3[nH]ncc3c2s1 [compound 67] | 371 | 3000 |  | 
CC(C)(Nc1ccc(F)c(F)c1)C(=O)Nc1nc2c(C(F)(F)F)cc3[nH]ncc3c2s1 [compound 72] | 180 | 2400 | 335 | IC50 ([2]; Homo sapiens, 96 h): 3500 nM
CC(C)(Nc1ccc(F)cc1)C(=O)Nc1nc2c(C(F)(F)F)cc3[nH]ncc3c2s1 [compound 74] | 163 | 2700 | 302 | IC50 ([2]; Homo sapiens, 96 h): 3900 nM
CC(C)(Nc1cccc(NS(C)(=O)=O)c1)C(=O)Nc1nc2c(C(F)(F)F)cc3[nH]ncc3c2s1 [compound 79] | 266 | 2400 | 171 | IC50 ([2]; Homo sapiens, 96 h): 3100 nM
CC(C)(Nc1ccc(Cl)c(NC(=O)C2CC2)c1)C(=O)Nc1nc2c(C(F)(F)F)cc3[nH]ncc3c2s1 [compound 80] | 165 | 2300 | 154 | IC50 ([2]; Homo sapiens, 96 h): 4100 nM
CC(C)(Nc1ccc2[nH]c(=O)[nH]c2c1)C(=O)Nc1nc2c(C(F)(F)F)cc3[nH]ncc3c2s1 [compound 83] |  |  | 343 | 
CC(C)(Nc1ccc(Cl)cc1C(=O)NCC(N)=O)C(=O)Nc1nc2c(C(F)(F)F)cc3[nH]ncc3c2s1 [compound 88] | 386 | 2900 | 449 | 
CC(C)(Nc1ccc(Cl)c(NC(=O)OCCO)c1)C(=O)Nc1nc2c(C(F)(F)F)cc3[nH]ncc3c2s1 [compound 89] | 105 | 2200 | 225 | IC50 ([2]; Homo sapiens, 96 h): 4500 nM
CON(C)C(=O)c1cc(Cl)ccc1NC(C)(C)C(=O)Nc1nc2c(C(F)(F)F)cc3[nH]ncc3c2s1 [compound 100] | 344 | 3300 | 391 | IC50 (leukemia cell line KG-1a; Homo sapiens, 96 h): 300 nM
O=C(CNc1ccc(F)cc1)Nc1nc2ccc3[nH]ncc3c2s1 [compound 105] | 257 | 1500 | 205 | IC50 (leukemia cell line KG-1a; Homo sapiens, 96 h): 100 nM
CC(=O)Nc1cccc(NCC(=O)Nc2nc3ccc4[nH]ncc4c3s2)c1 [compound 106] | 153 |  | 55 | IC50 (leukemia cell line KG-1a; Homo sapiens, 96 h): < 100 nM
O=C(CNc1ccccc1)Nc1nc2ccc3[nH]nc(Cl)c3c2s1 [compound 108] |  |  |  | IC50 (leukemia cell line KG-1a): 300 nM
NC(=O)CC(Nc1cccc(O)c1)C(=O)Nc1nc2ccc3[nH]ncc3c2s1 (stereo not drawn) [compound 109] | 55 |  | 56 | IC50 (Aurora A): 364 nM; IC50 (leukemia cell line KG-1a; Homo sapiens, 96 h): < 100 nM
COc1cccc(NC(CC(N)=O)C(=O)Nc2nc3ccc4[nH]ncc4c3s2)c1 (stereo not drawn) [compound 110] | 392 |  | 320 | 
O=C(Nc1nc2ccc3[nH]ncc3c2s1)C1CCCN1c1ccc(Cl)cc1 (stereo not drawn) [compound 111] | 262 | 2300 | 100 | IC50 (leukemia cell line KG-1a; Homo sapiens, 96 h): 500 nM
COc1cccc(NC2(C(=O)Nc3nc4ccc5[nH]ncc5c4s3)CC2)c1 [compound 119] |  |  |  | IC50 [1]: 2600 nM; IC50 (leukemia cell line KG-1a): 300 nM
CC(C)OC(=O)c1cc(NC2(C(=O)Nc3nc4ccc5[nH]ncc5c4s3)CC2)ccc1Cl [compound 123] | 195 | 2300 | 141 | 
CN(C)C(=O)c1cc(NC2(C(=O)Nc3nc4ccc5[nH]ncc5c4s3)CC2)ccc1Cl [compound 124] |  |  |  | IC50 (leukemia cell line KG-1a): 100 nM
CC(=O)Nc1cc(NC(C(=O)Nc2nc3ccc4[nH]ncc4c3s2)c2ccccc2)ccc1Cl (stereo not drawn) [compound 131] | 427 | 3000 | 277 | IC50 (Aurora A): 94 nM
COC(=O)c1cccc(NCC(=O)Nc2nc3ccc4[nH]ncc4c3s2)c1 [compound 134] | 477 | 1900 | 339 | IC50 (leukemia cell line KG-1a; Homo sapiens, 96 h): < 100 nM
